Reference: BindingDB's records for patent US20240352046 (1Cbio, 2024)
pIC50: −log10 of the molar value.

target: T1, Ectonucleotide pyrophosphatase/phosphodiesterase family member 1 (Homo sapiens, UniProt P22413); test: ENPP1 Inhibition Assay
T1 sequence (P22413 whole entry): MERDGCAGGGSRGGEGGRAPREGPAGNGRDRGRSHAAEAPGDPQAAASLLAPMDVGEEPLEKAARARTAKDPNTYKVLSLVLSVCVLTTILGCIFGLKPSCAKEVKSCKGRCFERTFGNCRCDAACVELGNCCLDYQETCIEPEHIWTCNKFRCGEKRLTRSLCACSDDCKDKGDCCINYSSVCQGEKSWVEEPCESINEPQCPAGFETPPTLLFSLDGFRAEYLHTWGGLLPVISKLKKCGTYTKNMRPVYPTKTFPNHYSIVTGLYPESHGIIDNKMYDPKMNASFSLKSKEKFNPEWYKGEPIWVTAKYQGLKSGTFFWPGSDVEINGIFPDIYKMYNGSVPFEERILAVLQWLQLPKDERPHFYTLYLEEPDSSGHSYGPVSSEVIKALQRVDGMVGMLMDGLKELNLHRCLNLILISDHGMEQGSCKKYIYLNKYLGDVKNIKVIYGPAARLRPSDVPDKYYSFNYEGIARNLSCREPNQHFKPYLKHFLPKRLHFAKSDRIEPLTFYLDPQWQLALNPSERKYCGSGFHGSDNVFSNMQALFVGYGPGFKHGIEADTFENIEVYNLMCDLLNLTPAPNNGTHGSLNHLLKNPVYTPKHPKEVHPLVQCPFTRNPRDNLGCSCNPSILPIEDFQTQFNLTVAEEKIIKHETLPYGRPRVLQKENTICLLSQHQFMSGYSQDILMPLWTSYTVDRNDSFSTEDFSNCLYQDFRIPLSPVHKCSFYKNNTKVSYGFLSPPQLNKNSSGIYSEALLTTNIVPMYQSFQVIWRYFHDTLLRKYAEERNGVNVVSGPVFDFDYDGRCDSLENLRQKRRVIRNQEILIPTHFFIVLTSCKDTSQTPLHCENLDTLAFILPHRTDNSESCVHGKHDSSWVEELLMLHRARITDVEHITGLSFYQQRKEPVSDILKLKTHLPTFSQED
Experimental: Dose response curve for the compounds were prepared in duplicates with starting conc. at 5 μM and a three-fold titration was performed. The reaction buffer consisted of 50 mM Tris (pH 8.0), 0.5 mM CaCl2), 1 μM ZnCl2, 250 mM NaCl and 0.1 mg/ml BSA. […] The reaction was then stopped by heating at 90° C. for 3 minutes. […] Following 60 min incubation, 20 μL of detection mixture was added to the enzyme reaction bringing the final volume to 40 μL. The reaction was further incubated for 60 min at RT after which the plates were read using BioTek Plate reader.

| Compound | pIC50 |
| --- | --- |
| COc1cc2ncnc(N3CC(CCN(C)S(N)(=O)=O)C3)c2cc1OC [US20240352046, Compound 1.47] | 6.07 |
| COc1ccc2c(N3CC(CCN(C)S(N)(=O)=O)C3)ncnc2c1 [US20240352046, Compound 1.40] | 6.10 |
| COc1cc2nc(C(F)F)nc(N3CC(CCNS(N)(=O)=O)C3)c2cc1OC [US20240352046, Compound 1.43] | 6.05 |
| COc1ccc2c(N3CC(CCNS(N)(=O)=O)C3)nc(C3CC3)nc2c1 [US20240352046, Compound 1.42] | < 5.52 |
